Results on 17 compounds are retold here after patent US9409952B2, “Peptide-compound cyclization method” (Chugai Seiyaku Kabushiki Kaisha, priority 2011, dated 2016).

Like-named read-outs stand apart in the source and are kept apart here. Starred links: 1 amine or outer side, 2 acyl side, 3 side chain; linkers in the order of their positions; H or OH if unused. Positions of bridges follow the written chain, without caps; N, C: chain ends. Non-standard residues stand in square brackets, D forms with d. Residues, ends and D or L forms follow the SMILES beside them. *: point of attachment. NMeF = CN[C@@H](Cc1ccccc1)C(=O)O; NMeGABA = CN(CCCC(=O)[*:2])[*:1]; NMeβAla = CN(CCC(=O)[*:2])[*:1]; NMeL = CN[C@@H](CC(C)C)C(=O)O; NMeV = CN[C@H](C(=O)O)C(C)C; NMeA = CN[C@@H](C)C(=O)O; Piperidide = C1CCN(*)CC1; dNMeA = CN[C@H](C)C(=O)O; Sar = CNCC(=O)O; tBu = CC(C)(C)*

Data set [1] in a line: PAMPA (parallel artificial membrane permeability assay). The data set is classed as in vitro ADME. As to conditions: PAMPA. A digest of the protocol:
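Artificial membrane was 10% (w/v) egg lecithin plus 0.5% (w/v) cholesterol in dodecane on a PVDF filter. A 10 mM DMSO stock was added at 0.5% (v/v) to donor buffer (50 mM MOPSO, pH 6.5, 5.0% glycocholic acid). After 18 h at 37 °C, LC/MS or LC/UV gave donor and acceptor levels for Pe.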
Background: The PAMPA barrier holds no transporters, so it reflects passive diffusion.

A short description of data set [2]: Metabolic stability in human hepatic microsome. The data set is classed as in vitro ADME. To be noted: microsomes.
Setting [3] is: membrane permeation rate (Pe), 50 mM MOPSO buffer pH 6.5 with 5.0% glycocholic acid, 37° C., 18 hours, read-out: iPAMPA Pe.
[4] abbreviates: pH 7.4, human hepatic microsome, NADPH(+), read-out: CL NADPH(+).

In turn, `CC(C)C[C@H]1C(=O)NCC(=O)N(C)[C@@H](Cc2ccccc2)C(=O)N(C)[C@@H](Cc2ccccc2)C(=O)N[C@@H]([C@@H](C)O)C(=O)N(C)[C@@H](C)C(=O)N[C@H](C(=O)N(C)[C@@H](Cc2ccccc2)C(=O)N(C)[C@@H](Cc2ccccc2)C(=O)N[C@@H](C)C(=O)N2CCCCC2)CC(=O)N(C)CCCC(=O)N[C@@H](C(C)C)C(=O)N1C` [DP-402] ([NMeGABA]V[NMeL]G[NMeF][NMeF]T[NMeA]D[NMeF][NMeF]A-Piperidide; lactam N-9) gave a Papp at 18 hours, 50 µM in data set [1] (pH 6.5) of 240 nm/s. In data set [2] (human, pH 7.4, CL NADPH(+)), the microsomal CLint at 1 uM was found to be 185 µL/min/mg.
Regarding `CC(C)C[C@H]1C(=O)N(C)[C@@H](C)C(=O)N(C)[C@@H](CC(C)C)C(=O)N[C@H](C(=O)N(C)[C@@H](Cc2ccccc2)C(=O)N(C)[C@@H](Cc2ccccc2)C(=O)N[C@@H](C)C(=O)N2CCCCC2)CC(=O)N(C)CCCC(=O)N[C@@H]([C@@H](C)O)C(=O)N(C)[C@@H](Cc2ccccc2)C(=O)N(C)[C@@H](CC(C)C)C(=O)N[C@@H](C(C)C)C(=O)N1C` [DP-403] ([NMeGABA]T[NMeF][NMeL]V[NMeL][NMeA][NMeL]D[NMeF][NMeF]A-Piperidide; lactam N-9), the Papp at 18 hours, 50 µM in data set [1] (setting [3]) worked out at 180 nm/s. In addition, the microsomal CLint at 1 uM in data set [2] (setting [4]) turned out to be 57 µL/min/mg.
The like results for `CC(C)C[C@H]1C(=O)N[C@@H]([C@@H](C)O)C(=O)N[C@H](C(=O)N(C)[C@@H](Cc2ccccc2)C(=O)N(C)[C@@H](Cc2ccccc2)C(=O)N[C@@H](C)C(=O)N2CCCCC2)CC(=O)N(C)CCCC(=O)N(C)[C@@H](C)C(=O)N(C)[C@@H](Cc2ccccc2)C(=O)N[C@@H](C(C)C)C(=O)N(C)[C@@H](CC(C)C)C(=O)N(C)CC(=O)N1C` [DP-404] ([NMeGABA][NMeA][NMeF]V[NMeL][Sar][NMeL]TD[NMeF][NMeF]A-Piperidide; lactam N-9) were, in that order, 200 nm/s and 107 µL/min/mg.
On the same counts, the results for `CC(C)C[C@H]1C(=O)N[C@@H]([C@@H](C)O)C(=O)N(C)[C@@H](C)C(=O)N(C)[C@@H](CC(C)C)C(=O)N[C@@H](C(C)C)C(=O)N[C@H](C(=O)N(C)[C@@H](Cc2ccccc2)C(=O)N(C)[C@@H](Cc2ccccc2)C(=O)N[C@@H](C)C(=O)N2CCCCC2)CC(=O)N(C)[C@@H](C)C(=O)N(C)[C@@H](Cc2ccccc2)C(=O)N(C)CC(=O)N1C` [DP-405] ([NMeA][NMeF][Sar][NMeL]T[NMeA][NMeL]VD[NMeF][NMeF]A-Piperidide; lactam N-9) are 260 nm/s and 83 µL/min/mg.
The like results for `CC(C)C[C@H]1C(=O)N[C@@H]([C@@H](C)O)C(=O)N[C@H](C(=O)N(C)[C@@H](Cc2ccccc2)C(=O)N(C)[C@@H](Cc2ccccc2)C(=O)N[C@@H](C)C(=O)N2CCCCC2)CC(=O)N(C)[C@@H](C)C(=O)N(C)CC(=O)N(C)[C@@H](Cc2ccccc2)C(=O)N(C)[C@@H](C)C(=O)N[C@@H](C)C(=O)N(C)[C@@H](C)C(=O)N1C` [DP-406] ([NMeA][Sar][NMeF][NMeA]A[NMeA][NMeL]TD[NMeF][NMeF]A-Piperidide; lactam N-9) were, in that order, 44 nm/s and 11 µL/min/mg.
On to `CC(C)C[C@H]1C(=O)N[C@@H](C(C)C)C(=O)N[C@H](C(=O)N(C)[C@@H](Cc2ccccc2)C(=O)N(C)[C@@H](Cc2ccccc2)C(=O)N[C@@H](C)C(=O)N2CCCCC2)CC(=O)N(C)CC(=O)N(C)[C@@H](CC(C)C)C(=O)N(C)[C@@H](Cc2ccccc2)C(=O)N[C@@H]([C@@H](C)O)C(=O)N(C)[C@@H](C)C(=O)N(C)CC(=O)N1C` [DP-407] ([Sar][NMeL][NMeF]T[NMeA][Sar][NMeL]VD[NMeF][NMeF]A-Piperidide; lactam N-9), for which the Papp at 18 hours, 50 µM in data set [1] (setting [3]) is 380 nm/s. For the same compound, the microsomal CLint at 1 uM in data set [2] (setting [4]) was found to be 29 µL/min/mg.
In turn, `CC(C)C[C@@H]1NC(=O)[C@H](C)N(C)C(=O)[C@H](C(C)C)N(C)C(=O)CN(C)C(=O)[C@H](Cc2ccccc2)NC(=O)[C@H](C(C)C)N(C)C(=O)[C@H](C)N(C)C(=O)[C@H]([C@@H](C)O)NC(=O)[C@H](Cc2ccccc2)N(C)C(=O)[C@H](C)NC(=O)CCN(C)C(=O)C[C@@H](C(=O)N2CCCCC2)NC1=O` [DP-408] ([NMeβAla]A[NMeF]T[NMeA][NMeV]F[Sar][NMeV][NMeA]LD-Piperidide; lactam N-12) yielded a Papp at 18 hours, 50 µM in data set [1] (pH 6.5) of 19 nm/s. Also, the microsomal CLint at 1 uM in data set [2] (human, pH 7.4, CL NADPH(+)) is 14 µL/min/mg.
The like results for `CC(C)C[C@H]1C(=O)N(C)[C@@H](C)C(=O)N[C@@H]([C@@H](C)O)C(=O)N(C)[C@@H](C)C(=O)N(C)[C@@H](C(C)C)C(=O)N[C@@H](COC(C)(C)C)C(=O)N[C@H](C(=O)N2CCCCC2)CC(=O)N(C)[C@H](C)C(=O)N(C)[C@@H](Cc2ccccc2)C(=O)N[C@@H](C)C(=O)N(C)[C@@H](C)C(=O)N[C@@H](Cc2ccccc2)C(=O)N1C` [DP-409] ([dNMeA][NMeF]A[NMeA]F[NMeL][NMeA]T[NMeA][NMeV]S(tBu)D-Piperidide; lactam N-12) were, in that order, 130 nm/s and 28 µL/min/mg.
`CC(C)C[C@H]1C(=O)N(C)[C@@H](C(C)C)C(=O)N[C@@H](C(C)C)C(=O)N(C)CC(=O)N(C)[C@@H](C)C(=O)N[C@@H]([C@@H](C)O)C(=O)N(C)[C@@H](C)C(=O)N[C@H](C(=O)N2CCCCC2)CC(=O)N(C)[C@@H](C)C(=O)N(C)[C@@H](C)C(=O)N(C)[C@@H](Cc2ccccc2)C(=O)N[C@@H](C)C(=O)N1C` [DP-410] ([NMeA][NMeA][NMeF]A[NMeL][NMeV]V[Sar][NMeA]T[NMeA]D-Piperidide; lactam N-12): the Papp at 18 hours, 50 µM in data set [1] (setting [3]) is 14 nm/s. For the same compound, the microsomal CLint at 1 uM in data set [2] (setting [4]) was determined as 19 µL/min/mg.
On the same counts, the results for `CC[C@H](C)[C@@H]1NC(=O)[C@H](CC(C)C)NC(=O)CCN(C)C(=O)C[C@@H](C(=O)N2CCCCC2)NC(=O)[C@H](CC(C)C)NC(=O)[C@H](Cc2ccccc2)NC(=O)[C@H]([C@@H](C)O)NC(=O)[C@H](CC(C)C)NC(=O)[C@H](C(C)C)NC(=O)[C@H](CC(C)C)NC(=O)CN(C)C1=O` [DP-411] ([NMeβAla]LI[Sar]LVLTFLD-Piperidide; lactam N-11) are 84 nm/s and 114 µL/min/mg.
For `CC[C@H](C)[C@@H]1NC(=O)[C@H](CC(C)C)N(C)C(=O)[C@H](C(C)C)NC(=O)[C@H](CC(C)C)NC(=O)[C@H](CC(C)C)NC(=O)[C@H]([C@@H](C)O)NC(=O)[C@H](Cc2ccccc2)NC(=O)[C@H](CC(C)C)NC(=O)[C@H](C(C)C)N(C)C(=O)CCN(C)C(=O)C[C@@H](C(=O)N2CCCCC2)NC1=O` [DP-412] ([NMeβAla][NMeV]LFTLLV[NMeL]ID-Piperidide; lactam N-11), the Papp at 18 hours, 50 µM in data set [1] (setting [3]) was determined as 260 nm/s. Also, the microsomal CLint at 1 uM in data set [2] (setting [4]) was 122 µL/min/mg.
For the compound `CC[C@H](C)[C@@H]1NC(=O)[C@H](CC(C)C)N(C)C(=O)[C@H](C)NC(=O)CN(C)C(=O)[C@H](Cc2ccccc2)NC(=O)[C@H]([C@@H](C)O)NC(=O)[C@H](CC(C)C)N(C)C(=O)CCN(C)C(=O)C[C@@H](C(=O)N2CCCCC2)NC(=O)[C@H](CC(C)C)N(C)C(=O)[C@H](CC(C)C)N(C)C1=O` [DP-413] ([NMeβAla][NMeL]TF[Sar]A[NMeL]I[NMeL][NMeL]D-Piperidide; lactam N-11), the Papp at 18 hours, 50 µM in data set [1] (setting [3]) came out at 290 nm/s. Besides, the microsomal CLint at 1 uM in data set [2] (setting [4]) amounted to 68 µL/min/mg.
As to `CC(C)C[C@H]1C(=O)N(C)[C@@H](Cc2ccccc2)C(=O)N[C@@H]([C@@H](C)O)C(=O)N(C)[C@@H](C)C(=O)N(C)[C@@H](CC(C)C)C(=O)N(C)[C@@H](C)C(=O)N[C@H](C(=O)N2CCCCC2)CC(=O)N(C)CCC(=O)N(C)[C@@H](C)C(=O)N[C@@H](C)C(=O)N(C)[C@@H](C(C)C)C(=O)N1C` [DP-414] ([NMeβAla][NMeA]A[NMeV][NMeL][NMeF]T[NMeA][NMeL][NMeA]D-Piperidide; lactam N-11), in data set [1] (setting [3]), the Papp at 18 hours, 50 µM was determined as 44 nm/s. The microsomal CLint at 1 uM in data set [2] (setting [4]) was found to be 20 µL/min/mg.
The like results for `CC[C@H](C)[C@@H]1NC(=O)[C@@H](C)NC(=O)C[C@@H](C(=O)N2CCCCC2)NC(=O)[C@H](Cc2ccccc2)NC(=O)[C@H]([C@@H](C)O)NC(=O)[C@H](C)NC(=O)[C@H](Cc2ccccc2)NC(=O)[C@H](CC(C)C)NC(=O)[C@H](CC(C)C)N(C)C(=O)[C@H](Cc2ccccc2)NC(=O)[C@H](CC(C)C)NC1=O` [DP-415] ([dA]ILF[NMeL]LFATFD-Piperidide; lactam N-11) were, in that order, 29 nm/s and 118 µL/min/mg.
As to `CC[C@H](C)[C@@H]1NC(=O)[C@H](CC(C)C)NC(=O)[C@H](C(C)C)NC(=O)[C@H](CC(C)C)N(C)C(=O)[C@H](CC(C)C)NC(=O)[C@H](Cc2ccccc2)NC(=O)[C@H]([C@@H](C)O)NC(=O)[C@H](CC(C)C)NC(=O)[C@H](Cc2ccccc2)NC(=O)[C@@H](C)N(C)C(=O)C[C@@H](C(=O)N2CCCCC2)NC1=O` [DP-416] ([dNMeA]FLTFL[NMeL]VLID-Piperidide; lactam N-11), in data set [1] (setting [3]), the Papp at 18 hours, 50 µM is 2.3 nm/s. Also, the microsomal CLint at 1 uM in data set [2] (setting [4]) is 20 µL/min/mg.
With `CC[C@H](C)[C@@H]1NC(=O)[C@H](C(C)C)N(C)C(=O)[C@H](C)N(C)C(=O)[C@H]([C@@H](C)O)NC(=O)[C@H](CC(C)C)N(C)C(=O)[C@H](Cc2ccccc2)NC(=O)[C@H](CC(C)C)N(C)C(=O)[C@@H](C)N(C)C(=O)C[C@@H](C(=O)N2CCCCC2)NC(=O)[C@H](C)NC(=O)[C@H](CC(C)C)N(C)C1=O` [DP-417] ([dNMeA][NMeL]F[NMeL]T[NMeA][NMeV]I[NMeL]AD-Piperidide; lactam N-11), the Papp at 18 hours, 50 µM in data set [1] (setting [3]) was found to be 430 nm/s. In data set [2] (setting [4]), the microsomal CLint at 1 uM is 113 µL/min/mg.
The like results for `CC(C)C[C@@H]1NC(=O)[C@H](CC(C)C)N(C)C(=O)[C@H](C)NC(=O)[C@H](C(C)C)N(C)C(=O)CN(C)C(=O)[C@H](Cc2ccccc2)NC(=O)[C@H]([C@@H](C)O)NC(=O)[C@H](CC(C)C)N(C)C(=O)[C@@H](C)N(C)C(=O)C[C@@H](C(=O)N2CCCCC2)NC(=O)[C@H](CC(C)C)N(C)C1=O` [DP-418] ([dNMeA][NMeL]TF[Sar][NMeV]A[NMeL]L[NMeL]D-Piperidide; lactam N-11) were, in that order, 280 nm/s and 71 µL/min/mg.
